In the CheMixHub viscosity set:
Several values for one entry are separate records, joined by “and”; a condition that tells them apart may be missing. Equal values may be shown once.

Experiments:
[1] = xn = mol fraction of the nth substance listed; conditions: 101 kPa

C=C(C)C(=O)OC
viscosity
Conditions | 298.15 K | 303.15 K | 308.15 K | 313.15 K
101 kPa | 0.5625 mPa·s | 0.5142 mPa·s and 0.524 mPa·s | 0.4932 mPa·s | 0.4684 mPa·s
101.3 kPa | 0.584 mPa·s | – | 0.492 mPa·s | –

CC1(c2ccccc2)OC1C#N (stereo unspecified)
101 kPa
Conditions | viscosity [mPa·s]
293.15 K | 11.77
298.15 K | 9.155
303.15 K | 7.386
313.15 K | 5.17
323.15 K | 3.522

CCCC[P+](C)(CCCC)CCCC.COS(=O)(=O)[O-]
viscosity
Conditions | 293.15 K | 298.15 K | 303.15 K | 308.15 K | 313.15 K | 318.15 K | 323.15 K
100 kPa | 729.1 mPa·s and 729.1 mPa·s | 521.3 mPa·s and 521.3 mPa·s | 381.4 mPa·s and 381.4 mPa·s | 286.1 mPa·s and 286.1 mPa·s | 217 mPa·s and 217 mPa·s | 169.1 mPa·s and 169.1 mPa·s | 133.4 mPa·s and 133.4 mPa·s
101 kPa | 729.1 mPa·s | 521.3 mPa·s | 381.4 mPa·s | 286.1 mPa·s | 217 mPa·s | 169.1 mPa·s | 133.4 mPa·s

CCCC[n+]1ccn(C)c1.O=C([O-])C(F)(F)F
101 kPa
Conditions | viscosity [mPa·s]
298.15 K | 52.9
303.15 K | 58
313.15 K | 37.83
323.15 K | 26.11

CCOC(C)OCC
101 kPa
Conditions | viscosity [mPa·s]
303.1 K | 0.404
313.1 K | 0.364

C[N+](C)(C)CCC[N+]1(C)CCCCC1.N#C[N-]C#N.N#C[N-]C#N
100 kPa
Conditions | viscosity
293.15 K | 4503 mPa·s and 4503 mPa·s
298.15 K | 2819 mPa·s
303.15 K | 1837 mPa·s and 1837 mPa·s
308.15 K | 1224 mPa·s
313.15 K | 856.1 mPa·s and 856.1 mPa·s
318.15 K | 618.5 mPa·s
323.15 K | 460.1 mPa·s and 460.1 mPa·s

ClCCCCCCCl
101 kPa
Conditions | viscosity
308.15 K | 1.616 mPa·s
313.15 K | 1.533 mPa·s and 1.534 mPa·s
318.15 K | 1.387 mPa·s

FC1CC(F)(F)C(F)(F)C1(F)F (stereo unspecified)
101 kPa
Conditions | viscosity [mPa·s]
298.15 K | 1.65
313.15 K | 1.28
323.15 K | 1.08

ClCCCCCCCl + c1ccccc1
viscosity [mPa·s], [1]
Conditions | x1 = 0.09315 | x1 = 0.1846 | x1 = 0.2859 | x1 = 0.3958 | x1 = 0.5003 | x1 = 0.5842 | x1 = 0.6836 | x1 = 0.7842 | x1 = 0.8829
308.15 K | 0.565 | 0.613 | 0.668 | 0.733 | 0.824 | 0.92 | 1.066 | 1.217 | 1.393
313.15 K | 0.546 | 0.591 | 0.645 | 0.704 | 0.789 | 0.888 | 1.014 | 1.164 | 1.324
318.15 K | 0.505 | 0.548 | 0.594 | 0.642 | 0.72 | 0.809 | 0.929 | 1.056 | 1.197
